Molecular target: F508del-CFTR (Homo sapiens, UniProt P13569, DEL508-508)
Assay: HS-YFP kinetic fluorescence (iodide quenching rate) assay in CFBE41o− cells
Format: cell-based
Design: expressed in transfected cells; host or cells: CFBE41o- cells with expression of F508del-CFTR and HS-YFP (generated as in Sondo et al. 2011)
Conditions: for AI (%) additivity index / AI additivity index: compound at 10 μM plus VX-809
Method: CFBE41o- cells, with expression of F508del-CFTR and halogen-sensitive fluorescent protein, were generated as previously described (Sondo E, et al. Am J Physiol. 2011, 301, […]-[…]). For the test, the cells were seeded in 96-well microplates using a culture medium consisting of DMEM and Ham's F12 (1:1) supplemented with 10% foetal bovine serum. After 24 hours from seeding, the cells were treated for another 24 hours with the test compounds dissolved in the culture medium at the desired concentrations. As a negative control, the solvent of the compounds (dimethyl sulfoxide, DMSO) dissolved in the medium with the same dilution ratio (final percentage of DMSO:0.1-0.2%) was used. As a positive control, the corrector VX-809 (Selleck Chemicals, […]) was used at a concentration of 1 μM. After treatment, the medium with the compounds was removed and the cells were stimulated with forskolin (Sigma-Aldrich, F6886) 20 μM plus genistein (Sigma-Aldrich, G6649) 50 μM (in 60 μl of PBS saline) to maximally activate the CFTR channels present in the membrane. In a microplate reader (FLUOstar-Omega, BMG) the fluorescence of the cells in each well was read for 14 seconds, with an injection of 165 μl of a iodide-enriched saline (modified PBS where NaCl, 137 mM, has been replaced with the same concentration of NaI). The iodide transport activity in each well was evaluated by subtraction of the background fluorescence (measured in a well without cells), subsequent normalization with respect to the initial fluorescence and finally by interpolation of the fluorescence quenching phase with an exponential function that allows the derivation of the maximum slope (quenching rate, QR). The activity of the synthesized compounds was initially evaluated on the CFBE41o- cell line with expression of the mutated F508del-CFTR protein described above (Sondo E, et al. Am J Physiol. 2011, 301, […]-[…]). For this purpose, a functional assay based on the fluorescent YFP protein sensitive to halides, HS-YFP, was used (Galietta L J, et al. J Biol Chem. 2001, 276, 19723-19728). The fluorescence of the HS-YFP protein is turned off by iodide. Therefore, if exposed to a solution containing iodide, cells with HS-YFP expression show a quenching speed of the fluorescence which depends on the presence and activity of anionic channels. Under control conditions, the mutated CFTR protein presents a serious defect of stability and maturation, so it remains trapped in the endoplasmic reticulum not reaching the cell surface in enough quantity. In the HS-YFP-based assay, this defect results in a low anion transport capacity and therefore in a low quenching rate (QR). Treatment for a prolonged time (e.g. 24 hours) with a corrector determines an improvement in protein maturation with an increase in the number of CFTR channels present in the membrane and therefore an increase in the flux of iodide and QR. In a first phase, the authors screened about 200 heterocyclic molecules with various nitrogenated tricyclic scaffolds. Conditions previously described have been used for screening (Sondo E, et al. Am J Physiol. 2011, 301, […]-[…]) and reported herein in the Materials and Methods section. A threshold equal to the average value plus three times the standard deviation of the QR of wells without compounds (only DMSO in the culture medium) was used as a criterion for the selection of active compounds.

[1] = Table 1, (QRTOT − QRVX)/QRVX, HS-YFP assay

F508del-CFTR, sequence (P13569 with tags, fused parts or gaps DEL508-508): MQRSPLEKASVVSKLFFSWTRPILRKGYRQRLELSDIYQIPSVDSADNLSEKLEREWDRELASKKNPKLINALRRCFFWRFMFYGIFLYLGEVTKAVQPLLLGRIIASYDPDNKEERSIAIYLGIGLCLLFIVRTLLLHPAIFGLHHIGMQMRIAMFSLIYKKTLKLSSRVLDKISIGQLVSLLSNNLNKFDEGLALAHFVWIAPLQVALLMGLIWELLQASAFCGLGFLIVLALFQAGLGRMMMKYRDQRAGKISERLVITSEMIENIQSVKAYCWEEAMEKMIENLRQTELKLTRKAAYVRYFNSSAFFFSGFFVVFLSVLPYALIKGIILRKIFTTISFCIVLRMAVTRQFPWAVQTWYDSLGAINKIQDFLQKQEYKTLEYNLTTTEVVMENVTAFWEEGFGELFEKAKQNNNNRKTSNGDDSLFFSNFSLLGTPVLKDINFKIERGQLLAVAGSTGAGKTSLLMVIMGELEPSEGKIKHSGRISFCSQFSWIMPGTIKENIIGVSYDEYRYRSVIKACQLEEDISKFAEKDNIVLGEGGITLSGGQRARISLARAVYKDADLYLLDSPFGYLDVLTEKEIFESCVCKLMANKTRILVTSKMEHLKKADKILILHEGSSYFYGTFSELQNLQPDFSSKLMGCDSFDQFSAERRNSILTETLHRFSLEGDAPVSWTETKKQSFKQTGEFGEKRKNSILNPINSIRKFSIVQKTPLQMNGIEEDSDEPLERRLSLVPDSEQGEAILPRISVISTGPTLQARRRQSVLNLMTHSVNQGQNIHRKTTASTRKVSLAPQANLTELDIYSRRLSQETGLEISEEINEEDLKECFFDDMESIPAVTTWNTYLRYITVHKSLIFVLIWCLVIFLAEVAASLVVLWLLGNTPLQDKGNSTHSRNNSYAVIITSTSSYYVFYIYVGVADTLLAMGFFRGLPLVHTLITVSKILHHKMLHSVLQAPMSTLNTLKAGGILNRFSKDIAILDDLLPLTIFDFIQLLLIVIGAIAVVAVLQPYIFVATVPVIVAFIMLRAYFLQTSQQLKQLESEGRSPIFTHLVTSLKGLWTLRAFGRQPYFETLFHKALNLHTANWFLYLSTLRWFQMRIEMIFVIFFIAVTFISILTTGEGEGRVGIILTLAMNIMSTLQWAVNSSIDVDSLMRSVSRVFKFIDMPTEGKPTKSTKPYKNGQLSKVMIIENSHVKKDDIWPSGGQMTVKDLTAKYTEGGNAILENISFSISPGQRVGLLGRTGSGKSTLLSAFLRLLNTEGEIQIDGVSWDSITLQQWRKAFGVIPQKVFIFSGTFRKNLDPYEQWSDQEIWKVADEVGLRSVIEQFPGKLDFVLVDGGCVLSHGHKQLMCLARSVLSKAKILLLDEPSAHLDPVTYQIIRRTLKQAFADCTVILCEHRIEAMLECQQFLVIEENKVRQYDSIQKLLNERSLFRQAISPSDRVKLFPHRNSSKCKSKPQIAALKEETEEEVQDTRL

AI (%) additivity index [1]	SMILES	other results
25%	Cc1cccc(Cn2c(C(N)=O)cc3c2-c2[nH]c(=O)c(S(=O)(=O)c4ccccc4)cc2CC3)c1 [PP093, 7-(Benzenesulfonyl)-1-[(3-methylphenyl)methyl]-8-oxo-4,5,8,9-tetrahydro-1H-pyrrolo[3,2-h]quinoline-2-carboxamide]	
4%	O=C(NC1CC1)c1cc2c(n1Cc1ccc(Br)cc1)-c1[nH]c(=O)c(S(=O)(=O)c3ccccc3)cc1CC2 [PP098, 7-(Benzenesulfonyl)-1-[(4-bromophenyl)methyl]-N-cyclopropyl-8-oxo-4,5,8,9-tetrahydro-1H-pyrrolo[3,2-h]quinoline-2-carboxamide]	
52%	Cc1cccc(Cn2c(C(=O)NC3CC3)cc3c2-c2[nH]c(=O)c(S(=O)(=O)c4ccccc4)cc2CC3)c1 [PP092, 7-(Benzenesulfonyl)-N-cyclopropyl-1-[(3-methylphenyl)methyl]-8-oxo-4,5,8,9-tetrahydro-1H-pyrrolo[3,2-h]quinoline-2-carboxamide]	
47%	Cc1ccc(Cn2c(C(=O)O)cc3c2-c2[nH]c(=O)c(S(=O)(=O)c4ccccc4)cc2CC3)cc1C [PP094, 7-(Benzenesulfonyl)-1-[(3,4-dimethylphenyl)methyl]-8-oxo-4,5,8,9-tetrahydro-1H-pyrrolo[3,2-h]quinoline-2-carboxylic acid]	
11%	Cc1ccc(Cn2c(C(N)=O)c(Br)c3c2-c2[nH]c(=O)c(S(=O)(=O)c4ccccc4)cc2CC3)cc1 [PP089, 7-(Benzenesulfonyl)-3-bromo-1-[(4-methylphenyl)methyl]-8-oxo-4,5,8,9-tetrahydro-1H-pyrrolo[3,2-h]quinoline-2-carboxamide]	
	CCOC(=O)c1nn(Cc2ccc(C)c(C)c2)c2c1CCc1cc(S(=O)(=O)c3ccccc3)c(=O)[nH]c1-2 [PZ7, Ethyl 7-(benzenesulfonyl)-1-[(3,4-dimethylphenyl)methyl]-8-oxo-4,5,8,9-tetrahydro-1H-pyrazolo[4,3-h]quinoline-3-carboxylate]	AI (%) additivity index (Table 6, (QRTOT-QRVX)/QRVX): 104%
	CCOC(=O)c1c(Br)c2c(n1Cc1ccc(C)cc1)-c1nc(NS(=O)(=O)c3ccccc3)ncc1CC2 [SVQ10, Ethyl 2-[(benzenesulfonyl)amino]-7-bromo-9-[(4-methylphenyl)methyl]-6,9-dihydro-5H-pyrrolo[3,2-h]quinazoline-8-carboxylate]	AI additivity index (Table 3, (QRTOT-QRVX)/QRVX): 134%
	CC(C)OC(=O)c1ccc2n1CCCc1cnc(N)nc1-2 [QZQ21, Propan-2-yl 2-amino-6,7-dihydro-5H-pyrimido[4,5-c]pyrrolo[1,2-a]azepine-9-carboxylate]	AI (%) additivity index (Table 5, (QRTOT-QRVX)/QRVX): 6%
31%	Cc1cccc(Cn2c(C(N)=O)cc3c2-c2[nH]c(=O)c(S(=O)(=O)c4ccccc4)cc2CC3)c1 [PP082, 7-(Benzenesulfonyl)-1-[(3-methylphenyl)methyl]-8-oxo-4,5,8,9-tetrahydro-1H-pyrrolo[3,2-h]quinoline-2-carboxamide]	
39%	COC(=O)c1c(Br)c2c(n1Cc1ccc(C)cc1)-c1[nH]c(=O)c(S(=O)(=O)c3ccccc3)cc1CC2 [PP031, Methyl 3-bromo-1-(4-methylbenzyl)-8-oxo-7-(phenylsulfonyl)-4,5,8,9-tetrahydro-1H-pyrrolo[3,2-h]quinoline-2-carboxylate]	
62%	CCOC(=O)c1cc2c(n1Cc1ccc(C)nc1)-c1[nH]c(=O)c(S(=O)(=O)c3ccccc3)cc1CC2 [PP066, Ethyl 7-(benzenesulfonyl)-1-[(6-methylpyridin-3-yl)methyl]-8-oxo-4,5,8,9-tetrahydro-1H-pyrrolo[3,2-h]quinoline-2-carboxylate]	
	CC(=O)Nc1ncc2c(n1)-c1ccc(C(=O)OC(C)C)n1CCC2 [QZQ26, Propan-2-yl 2-acetamido-6,7-dihydro-5H-pyrimido[4,5-c]pyrrolo[1,2-a]azepine-9-carboxylate]	AI (%) additivity index (Table 5, (QRTOT-QRVX)/QRVX): 2%
	CCOC(=O)c1nn(Cc2ccc(C)cc2)c2c1CCc1cc(S(=O)(=O)c3ccccc3)c(=O)[nH]c1-2 [PZ1, Ethyl 7-(benzenesulfonyl)-1-[(4-methylphenyl)methyl]-8-oxo-4,5,8,9-tetrahydro-1H-pyrazolo[4,3-h]quinoline-3-carboxylate]	AI (%) additivity index (Table 6, (QRTOT-QRVX)/QRVX): 88%
	CCOC(=O)c1c(Br)c2ccc3cc(S(=O)(=O)c4ccccc4)c(=O)[nH]c3c2n1Cc1ccc(C)cc1 [13 (PP057), Ethyl 7-(benzenesulfonyl)-3-bromo-1-[(4-methylphenyl)methyl]-8-oxo-8,9-dihydro-1H-pyrrolo[3,2-h]quinoline-2-carboxylate]	AI additivity index (Table 1a, (QRTOT − QRVX)/QRVX): 272%; structure-activity comparison of corrector potency/activity (relative to the analogue): Increased activity
	CCOC(=O)c1c2c(nn1Cc1ccc(C)c(C)c1)-c1[nH]c(=O)c(S(=O)(=O)c3ccccc3)cc1CC2 [PZ8, Ethyl 7-(benzenesulfonyl)-2-[(3,4-dimethylphenyl)methyl]-8-oxo-4,5,8,9-tetrahydro-2H-pyrazolo[4,3-h]quinoline-3-carboxylate]	AI (%) additivity index (Table 6, (QRTOT-QRVX)/QRVX): 21%
37%	Cc1ccc(Cn2c(C(=O)O)cc3c2-c2[nH]c(=O)c(S(=O)(=O)c4ccccc4)cc2CC3)cc1 [PP078, 7-(Benzenesulfonyl)-1-[(4-methylphenyl)methyl]-8-oxo-4,5,8,9-tetrahydro-1H-pyrrolo[3,2-h]quinoline-2-carboxylic acid]	
	CC(C)OC(=O)c1c(Br)cc2n1CCCc1cc(S(=O)(=O)c3ccccc3)c(=O)[nH]c1-2 [QZN14, Propan-2-yl 3-(benzenesulfonyl)-10-bromo-2-oxo-1,5,6,7-tetrahydro-2H-pyrido[2,3-c]pyrrolo[1,2-a]azepine-9-carboxylate]	AI (%) additivity index (Table 4, (QRTOT − QRVX)/QRVX): 141%
284%	CCOC(=O)c1c(Br)c2c(n1CC1CC1)-c1[nH]c(=O)c(S(=O)(=O)c3ccccc3)cc1CC2 [PP065, Ethyl 7-(benzenesulfonyl)-3-bromo-1-(cyclopropylmethyl)-8-oxo-4,5,8,9-tetrahydro-1H-pyrrolo[3,2-h]quinoline-2-carboxylate]	
169%	CCOC(=O)c1cc2c(n1Cc1ccc(C)cc1)-c1[nH]c(=O)c(S(=O)(=O)c3ccccc3)cc1CC2 [PP007]	AI additivity index in the example of FIG. 1 (10 μM, with VX-809 1 μM, 24 h): 74%; F508del-CFTR activity (quenching rate) versus DMSO control (compound alone, 24 h treatment): significant increase in F508del-CFTR activity; F508del-CFTR activity (quenching rate) of combination with VX-809 (compound plus VX-809 1 μM, 24 h): greater than the sum of the single effects; screening outcome (QR above mean plus three SD of DMSO wells) (screen of about 200 heterocyclic molecules): active
148%	CCOC(=O)c1cc2c(n1Cc1ccc(Br)cc1)-c1[nH]c(=O)c(S(=O)(=O)c3ccccc3)cc1CC2 [PP060, Ethyl 7-(benzenesulfonyl)-1-[(4-bromophenyl)methyl]-8-oxo-4,5,8,9-tetrahydro-1H-pyrrolo[3,2-h]quinoline-2-carboxylate]	
235%	CCOC(=O)c1cc2c(n1CC1CC1)-c1[nH]c(=O)c(S(=O)(=O)c3ccccc3)cc1CC2 [PP064, Ethyl 7-(benzenesulfonyl)-1-(cyclopropylmethyl)-8-oxo-4,5,8,9-tetrahydro-1H-pyrrolo[3,2-h]quinoline-2-carboxylate]	
133%	COC(=O)c1c(Br)c2c(n1Cc1ccccc1C)-c1[nH]c(=O)c(S(=O)(=O)c3ccccc3)cc1CC2 [PP032, Methyl 3-bromo-1-(2-methylbenzyl)-8-oxo-7-(phenylsulfonyl)-4,5,8,9-tetrahydro-1H-pyrrolo[3,2-h]quinoline-2-carboxylate]	

From US12410164B2, “Heterocyclic compounds and medical use thereof” (FONDAZIONE TELETHON, priority 2018, dated 2025)
